These results are taken from PubChem BioAssay AID1259407 (Chemical Carcinogenesis Research Information System (CCRIS), 2018).

The structures appear in SMILES notation. “Also recorded” adds a separate entry of the source. The source made the active and inactive calls. The rule behind the calls is not given here.

The data set concerns CCRIS mutagenicity, Ames/micronucleus/aberration tests. Nature of the data set: CCRIS mutagenicity studies.
Where [1] appears, read: Test System: AMES SALMONELLA TYPHIMURIUM, Strain/Indicator: TA98, Metabolic Activation: NONE, Method: PREINCUBATION
Where [2] appears, read: Test System: AMES SALMONELLA TYPHIMURIUM, Strain/Indicator: TA100, Metabolic Activation: NONE, Method: PREINCUBATION
Setting [3] is: Test System: AMES SALMONELLA TYPHIMURIUM, Strain/Indicator: TA1535, Metabolic Activation: NONE, Method: PREINCUBATION
[4] abbreviates: Test System: AMES SALMONELLA TYPHIMURIUM, Strain/Indicator: TA1537, Metabolic Activation: NONE, Method: PREINCUBATION

In the case of `COc1ccc(C)cc1N`, the mutagenic call runs as follows: (End Point: In vitro chromosomal aberrations, Test System: Chinese hamster lung (CHL/IU) cells, Metabolic Activation: None) “active; positive (structural changes). toxicity at 1.2 mg/ml; also recorded: active; positive (structural changes). toxicity at 0.60 mg/ml; also recorded: active; positive (structural changes). toxicity at 0.8 mg/ml; no dose response observed”; (End Point: In vitro chromosomal aberrations, Test System: Chinese hamster lung (CHL/IU) cells, Metabolic Activation: Rat, Liver, S9, Phenobarbital and 5,6-benzoflavone) “active; positive (structural changes and ploidy). toxicity at 1.2 mg/ml; no dose respons”; (End Point: In vivo micronucleus, Test System: Polychromatic erythrocytes, Species: Mouse, Strain/Sex: C57BL/6TacBr-[KO]p53[TSG-p53], Route: Oral) “active; positive at all days”; (Test System: AMES SALMONELLA TYPHIMURIUM, Strain/Indicator: TA98, Metabolic Activation: HAMSTER, LIVER, S-9, AROCLOR 1254 (30%), Method: PREINCUBATION) “active; positive”; (Test System: AMES SALMONELLA TYPHIMURIUM, Strain/Indicator: TA98, Metabolic Activation: HAMSTER, LIVER, S-9, PHENOBARBITAL AND BETA-NAPHTHOFLAVONE, Method: PREINCUBATION) “active; positive”; under setting [1], “inactive; negative”. Besides, the mutagenic call is “active; positive” (Test System: AMES SALMONELLA TYPHIMURIUM, Strain/Indicator: TA98, Metabolic Activation: RAT, LIVER, S-9, AROCLOR 1254 (30%), Method: PREINCUBATION); “active; positive” (Test System: AMES SALMONELLA TYPHIMURIUM, Strain/Indicator: TA100, Metabolic Activation: HAMSTER, LIVER, S-9, AROCLOR 1254 (30%), Method: PREINCUBATION); “active; positive” (Test System: AMES SALMONELLA TYPHIMURIUM, Strain/Indicator: TA100, Metabolic Activation: HAMSTER, LIVER, S-9, PHENOBARBITAL AND BETA-NAPHTHOFLAVONE, Method: PREINCUBATION); “inactive; negative” under setting [2]; “active; positive” (Test System: AMES SALMONELLA TYPHIMURIUM, Strain/Indicator: TA100, Metabolic Activation: RAT, LIVER, S-9, AROCLOR 1254 (30%), Method: PREINCUBATION); “inactive; negative” (Test System: AMES SALMONELLA TYPHIMURIUM, Strain/Indicator: TA1535, Metabolic Activation: HAMSTER, LIVER, S-9, PHENOBARBITAL AND BETA-NAPHTHOFLAVONE, Method: PREINCUBATION). In addition, the mutagenic call is “inactive; negative” under setting [3]; “active; positive” (Test System: AMES SALMONELLA TYPHIMURIUM, Strain/Indicator: TA1537, Metabolic Activation: HAMSTER, LIVER, S-9, PHENOBARBITAL AND BETA-NAPHTHOFLAVONE, Method: PREINCUBATION); “inactive; negative” under setting [4]; “inactive; negative” (Test System: E. COLI, Strain/Indicator: WP2UVRA, Metabolic Activation: HAMSTER, LIVER, S-9, PHENOBARBITAL AND BETA-NAPHTHOFLAVONE, Method: PREINCUBATION); “inactive; negative” (Test System: E. COLI, Strain/Indicator: WP2 UVRA, Metabolic Activation: HAMSTER, LIVER, S-9, Method: STANDARD PLATE); “inactive; negative” (Test System: E. COLI, Strain/Indicator: WP2 UVRA, Metabolic Activation: MOUSE, LIVER, S-9, AROCLOR 1254, Method: STANDARD PLATE). The mutagenic call (Test System: E. COLI, Strain/Indicator: WP2UVRA, Metabolic Activation: NONE, Method: PREINCUBATION) was “inactive; negative”; the mutagenic call (Test System: E. COLI, Strain/Indicator: WP2 UVRA, Metabolic Activation: NONE, Method: STANDARD PLATE) was “inactive; negative”; the mutagenic call (Test System: E. COLI, Strain/Indicator: WP2 UVRA, Metabolic Activation: RAT, LIVER, S-9, AROCLOR 1254, Method: STANDARD PLATE) is “inactive; negative”; the mutagenic call (Test System: E. COLI, Strain/Indicator: WP2 UVRA, Metabolic Activation: RAT, LIVER, S-9, Method: STANDARD PLATE) was “inactive; negative”; the mutagenic call (Test System: UDS RODENT HEPATOCYTES, Strain/Indicator: THY INCORP (NON-S-PHASE), Metabolic Activation: NONE, Method: AUTORADIOGRAPHY) was “inactive; negative”.

Consider `CCCN=NC(C)(C)OO`, for which the mutagenic call is “active; positive” (Test System: AMES SALMONELLA TYPHIMURIUM, Strain/Indicator: TA1535, Metabolic Activation: NONE) and “active; positive” (Test System: E. COLI, Strain/Indicator: WP2 (HCR-), Metabolic Activation: NONE).

For the compound `COc1cc([C@@H]2c3cc4c(cc3[C@@H](O[C@@H]3O[C@@H]5CO[C@@H](c6cccs6)O[C@H]5[C@H](O)[C@H]3O)[C@H]3COC(=O)[C@H]23)OCO4)cc(OC)c1O`, the mutagenic call is, setting by setting: (Test System: MOUSE LYMPHOMA, Strain/Indicator: L5178Y (HPRT)/6-THIOGUANINE, Metabolic Activation: NONE, Method: FLUCTUATION TEST) “inactive; negative”; (Test System: MOUSE LYMPHOMA, Strain/Indicator: L5178Y (TK+/TK-), Metabolic Activation: NONE) “active; positive”; (Test System: MOUSE LYMPHOMA, Strain/Indicator: L5178Y (TK+/TK-), Metabolic Activation: NONE, Method: FLUCTUATION TEST) “active; positive”; (Test System: MOUSE LYMPHOMA, Strain/Indicator: L5178Y (TK+/TK-), Metabolic Activation: NONE, Method: SUSPENSION/PLATE) “active; positive”.

For `CCCCCNc1snc2ccccc12`, the mutagenic call is “inactive; negative” (Test System: AMES SALMONELLA TYPHIMURIUM, Strain/Indicator: TA98, Metabolic Activation: NONE, Method: STANDARD PLATE); “inactive; negative” (Test System: AMES SALMONELLA TYPHIMURIUM, Strain/Indicator: TA98, Metabolic Activation: S-9, Method: STANDARD PLATE); “inactive; negative” (Test System: AMES SALMONELLA TYPHIMURIUM, Strain/Indicator: TA100, Metabolic Activation: NONE, Method: STANDARD PLATE); “inactive; negative” (Test System: AMES SALMONELLA TYPHIMURIUM, Strain/Indicator: TA100, Metabolic Activation: S-9, Method: STANDARD PLATE); “inactive; negative” (Test System: AMES SALMONELLA TYPHIMURIUM, Strain/Indicator: TA1535, Metabolic Activation: NONE, Method: STANDARD PLATE); “inactive; negative” (Test System: AMES SALMONELLA TYPHIMURIUM, Strain/Indicator: TA1535, Metabolic Activation: S-9, Method: STANDARD PLATE). Also, the mutagenic call was “inactive; negative” (Test System: AMES SALMONELLA TYPHIMURIUM, Strain/Indicator: TA1537, Metabolic Activation: NONE, Method: STANDARD PLATE) and “inactive; negative” (Test System: AMES SALMONELLA TYPHIMURIUM, Strain/Indicator: TA1537, Metabolic Activation: S-9, Method: STANDARD PLATE).

In the case of `Clc1cc(Cl)c(Cl)c(Cl)c1`, the mutagenic call (End Point: IN VITRO CHROMOSOMAL ABERRATIONS, Test System: CHO-LB CELLS, Metabolic Activation: NONE) was “inactive; negative”; the mutagenic call (End Point: IN VITRO CHROMOSOMAL ABERRATIONS, Test System: CHO-LB CELLS, Metabolic Activation: RAT, LIVER, S-9, AROCLOR 1254) was “inactive; negative”; the mutagenic call (Test System: AMES SALMONELLA TYPHIMURIUM, Strain/Indicator: TA98, Metabolic Activation: HAMSTER, LIVER, S-9, AROCLOR 1254, Method: PREINCUBATION) is “inactive; negative”; the mutagenic call under setting [1] was “inactive; negative”; the mutagenic call (Test System: AMES SALMONELLA TYPHIMURIUM, Strain/Indicator: TA98, Metabolic Activation: RAT, LIVER, S-9, AROCLOR 1254, Method: PREINCUBATION) is “inactive; negative”; the mutagenic call (Test System: AMES SALMONELLA TYPHIMURIUM, Strain/Indicator: TA100, Metabolic Activation: HAMSTER, LIVER, S-9, AROCLOR 1254, Method: PREINCUBATION) is “inactive; negative”. In addition, the mutagenic call by setting is: under setting [2], “inactive; negative”; (Test System: AMES SALMONELLA TYPHIMURIUM, Strain/Indicator: TA100, Metabolic Activation: RAT, LIVER, S-9, AROCLOR 1254, Method: PREINCUBATION) “inactive; negative”; (Test System: AMES SALMONELLA TYPHIMURIUM, Strain/Indicator: TA1535, Metabolic Activation: HAMSTER, LIVER, S-9, AROCLOR 1254, Method: PREINCUBATION) “inactive; negative”; under setting [3], “inactive; negative”; (Test System: AMES SALMONELLA TYPHIMURIUM, Strain/Indicator: TA1535, Metabolic Activation: RAT, LIVER, S-9, AROCLOR 1254, Method: PREINCUBATION) “inactive; negative”; (Test System: AMES SALMONELLA TYPHIMURIUM, Strain/Indicator: TA1537, Metabolic Activation: HAMSTER, LIVER, S-9, AROCLOR 1254, Method: PREINCUBATION) “inactive; negative”. Further, the mutagenic call reads like this: under setting [4], “inactive; negative”; (Test System: AMES SALMONELLA TYPHIMURIUM, Strain/Indicator: TA1537, Metabolic Activation: RAT, LIVER, S-9, AROCLOR 1254, Method: PREINCUBATION) “inactive; negative”.
